Calls of active or inactive are those of the source. The calls are words filed in the database; no cut-off is given here.
Assays:
AGS [1] = test: Antitumor activity against human AGS cells xenografted in nude mouse assessed as suppression of tumor burden at 10 to 20 mg/kg, ip administered every other day and monitored every 3 days; type: functional, organism-based; details: dose 10-20 mg/kg, time 3.0 day
HGC-27 [2] = test: Inhibition of mitochondrial fission in human HGC-27 cells assessed as downregulation of p-DRP1 at 0 to 10 uM measured after 24 hrs by Western blot analysis; type: functional, cell-based; details: dose 0-10 µM
AGS [3] = test: Induction of cell cycle arrest in human AGS cells assessed as decrease in Cyclin D1 level at 0 to 10 uM by Western blot analysis; type: functional, cell-based; details: dose 0-10 µM
AGS [4] = test: Induction of apoptosis in human AGS cells assessed as increase in cleaved caspase-3 level at 0 to 10 uM by Western blot analysis; type: functional, cell-based; details: dose 0-10 µM
HGC-27 [5] = test: Induction of apoptosis in human HGC-27 cells assessed as viable cells measured after 24 hrs by AnnexinV-FITC/PI staining based flow cytometry method (reference value: 96.6%); type: functional
AGS [6] = test: Induction of apoptosis in human AGS cells assessed as late apoptotic cells at 10 uM measured after 24 hrs by AnnexinV-FITC/PI staining based flowcytometry method (reference value: 3.4%); type: functional
AGS [7] = test: Induction of apoptosis in human AGS cells assessed as early apoptotic cells measured after 24 hrs by AnnexinV-FITC/PI staining based flow cytometry method (reference value: 2%); type: functional
AGS [8] = test: Inhibition of mitochondrial fission in human AGS cells assessed as reduction in punctiform mitochondria at 0 to 6 uM measured after 24 hrs by mitotracker based confocal microscopy; type: functional; details: dose 0-6 µM
HGC-27 [9] = test: Inhibition of mitochondrial fission in human HGC-27 cells assessed as reduction in ATP content at 0 to 10 uM measured after 24 hrs by microplate reader assay; type: functional, cell-based; details: dose 0-10 µM
HGC-27 [10] = test: Induction of apoptosis in human HGC-27 cells assessed as increase in cleaved caspase-9 level at 0 to 10 uM by Western blot analysis; type: functional, cell-based; details: dose 0-10 µM
HGC-27 [11] = test: Induction of apoptosis in human HGC-27 cells assessed as late apoptotic cells measured after 24 hrs by AnnexinV-FITC/PI staining based flow cytometry method (reference value: 1.6%); type: functional
HGC-27 [12] = test: Induction of apoptosis in human HGC-27 cells assessed as late apoptotic cells at 8 uM measured after 24 hrs by AnnexinV-FITC/PI staining based flowcytometry method (reference value: 5.4%); type: functional
AGS [13] = test: Inhibition of mitochondrial fission in human AGS cells assessed as reduction in mitochondrial elongated fragments at 0 to 6 uM measured after 24 hrs by mitotracker based confocal microscopy; type: functional, cell-based; details: dose 0-6 µM
AGS [14] = test: Inhibition of ERK signalling pathway in human AGS cells assessed as downregulation of p-ERK levels at 0 to 10 uM and measured after 24 hrs by western blot analysis; type: cell-based; details: dose 0-10 µM
HGC-27 [15] = test: Induction of apoptosis in human HGC-27 cells assessed as necrotic cells at 10 uM measured after 24 hrs by AnnexinV-FITC/PI staining based flowcytometry method (reference value: 0.2%); type: functional
HGC-27 [16] = test: Induction of apoptosis in human HGC-27 cells assessed as viable cells at 6 uM measured after 24 hrs by AnnexinV-FITC/PI staining based flowcytometry method (reference value: 91.1%); type: functional; details: read-out: Activity

CC(C)=CCC12Oc3cc(O)ccc3C1(O)Oc1cc(O)c([C@H]3C=C(C)C[C@H](c4ccc(O)cc4O)[C@H]3C(=O)c3ccc(O)cc3O)c(O)c1C2=O (stereo partly specified)
Activity (AGS [1]): Active
inhibition (HGC-27 [2]): Active
Activity (AGS [3]): Active
Activity (AGS [4]): Active
Activity (HGC-27 [5]): 91.3%
Activity (AGS [6]): 15.3%
Activity (AGS [7]): 3.5%
inhibition (AGS [8]): Active
inhibition (HGC-27 [9]): Active
Activity (HGC-27 [10]): Active
Activity (HGC-27 [11]): 3.9%
Activity (HGC-27 [12]): 11.1%
inhibition (AGS [13]): Active
inhibition (AGS [14]): Active
Activity (HGC-27 [15]): 1.3%
viability at 6 µM (HGC-27 [16]): 84.2%

Source: ChEMBL document CHEMBL5126640, “Sanggenon C Suppresses Tumorigenesis of Gastric Cancer by Blocking ERK-Drp1-Mediated Mitochondrial Fission” (J Nat Prod, 2022)
